The values below come from patent publication US10744209B2, “Biodegradable polymeric nanoparticle conjugates and use thereof” (NEW YORK UNIVERSITY, priority 2015, dated 2020).

The conditions of data set [1]: cited from earlier work.
Data set [2] concerns RAW264.7 cells. As to the kind of experiment: RANKL-induced osteoclast differentiation, TRAP staining. Format: cell-based. Particulars: 50 ng/ml RANKL; CGS21680 10^−6M; four days. As for the experimental part:
Tartrate-resistant acid phosphatase (TRAP) staining was carried out. The number of TRAP-positive MNCs containing ≥3 nuclei/cell was scored.

As for `Nc1ncnc2c1ncn2[C@@H]1O[C@H](CO)[C@@H](O)[C@H]1O` [Adenosine, adenosine], the half-life in vivo in data set [1] is less than 10 s.
For `CCNC(=O)[C@H]1O[C@@H](n2cnc3c(N)nc(NCCc4ccc(CCC(=O)O)cc4)nc32)[C@H](O)[C@@H]1O` [CGS21680], in data set [2], the RANKL-induced osteoclast differentiation result is on record as “block”.
